From patent US12037305B2, “Calcium salt polymorphs as anti-inflammatory, immunomodulatory and anti-proliferative agents” (Immunic AG, priority 2018, dated 2024)
Where a name gives a salt, the structure may show the parent alone.

Legend:
[1] = Dynamic vapor sorption (DVS); format: physicochemical
Text: DVS (SMS): Surface Measurement Systems Ltd. DVS-1 water vapour sorption analyzer. The sample is placed on a platinum sample pan and allowed to equilibrate at a given relative humidity (r.h.), usually 50% r.h. Then, a pre-defined humidity program was started with a scanning rate of 5% r.h. change per hour. First step: from 50% r.h. to 0% r.h. (in case of a possibly hydrate as starting material 50 to 95% r.h.), second step: from 0% to 95% r.h. (in case of a possibly hydrate as starting material 95 to 0% r.h.)

[2] = test system: Human T-Cells; experiment: Proliferation assay of human T-cells (PHA-stimulated PBMC, BrdU ELISA); format: cell-based; conditions: T-cell, PHA 20 μg/ml, 48 hours
Experimental: Human peripheral blood mononuclear cells (PBMC) were obtained from healthy volunteers and transferred to RPMI1640 cell culture medium containing 10% dialyzed fetal calf serum. 80.000 cells per well were pipetted into a 96-well plate and phytohemagglutinin (PHA) was added in phosphate buffered saline to a final concentration of 20 μg/ml to stimulate T-cell proliferation. Vidofludimus was added in dimethyl sulfoxide (DMSO, final concentration: 0.1 Vol %) to final concentrations ranging from 20 nM to 50 μM. After incubation for 48 hours, cell proliferation was quantified using the “cell proliferation ELISA BrdU” (Roche) according to the manufacturer's instructions. Half maximal inhibition (IC50) was calculated using a 4-parameter sigmoidal curve fit.

SMILES	water uptake ([1]; at 95% r.h. (not reversible))	water uptake ([1]; at about 85% r.h., after desolvation)	IC50 [2]
COc1cccc(-c2ccc(NC(=O)C3=C(C(=O)O)CCC3)c(F)c2)c1 [Calcium salt]	0.4%	0.3%	–
COc1cccc(-c2ccc(NC(=O)C3=C(C(=O)O)CCC3)c(F)c2)c1 [Vidofludimus, 2-(3-Fluoro-3′-methoxy-biphenyl-4-ylcarbamoyl)-cyclopent-1-enecarboxylic acid]	–	–	4.1 µM
